Laboratory results taken from patent US6706663B2, “Herbicidal 3-heterocyclic substituted benzisothiazole and benzisoxazole compounds” (Wyeth, priority 2000, dated 2004).

Columns and labels:
[1] = system: ZEAMX (Corn, Field); experiment: Preemergence herbicidal evaluation; assay type: in vivo, Zea mays, L.; settings: rated 4-5 weeks after treatment
[2] = system: TRZAWR (Wheat, Winter, cv Riband); experiment: Preemergence herbicidal evaluation; assay type: in vivo, Triticum aestivum; settings: rated 4-5 weeks after treatment
Procedure, shortened: (§1)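 Rating 0–9, visual, vs control; 4–5 wk after spraying seeded cups with compound in aq. acetone; conventional greenhouse care.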

[3] = system: CHEAL (Chenopodium album); experiment: Postemergence herbicidal evaluation; assay type: in vivo, L.; settings: for CHEAL herbicidal rating: postemergence
Procedure, shortened: (§2)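 Visual 0–9 injury scores versus control plants, covering stand, vigour, malformation, size, chlorosis and general appearance, taken four to five weeks post-spray and averaged over replicate tests. Plants were sprayed at roughly two weeks old and held on greenhouse benches.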

[4] = system: AMBEL (Ambrosia artemisifolia); experiment: Postemergence herbicidal evaluation; assay type: in vivo, L.; settings: for AMBEL herbicidal rating: postemergence
Procedure, shortened: as §2

[5] = system: CASOB (Cassia obtusifolia); experiment: Postemergence herbicidal evaluation; assay type: in vivo, L.; settings: for CASOB herbicidal rating: postemergence
Procedure, shortened: as §2

[6] = system: GLXMAW (Soybean, Williams); experiment: Preemergence herbicidal evaluation; assay type: in vivo, Glycine max, (L.) Merr. cv Williams; settings: rated 4-5 weeks after treatment
[7] = system: TRZAWR (Wheat, Winter, cv Riband); experiment: Postemergence herbicidal evaluation; assay type: in vivo, Triticum aestivum; settings: for TRZAWR herbicidal rating: postemergence
Procedure, shortened: as §2

[8] = system: GALAP (Galium aparine); experiment: Preemergence herbicidal evaluation; assay type: in vivo; settings: rated 4-5 weeks after treatment
Procedure, shortened: as §1

[9] = system: ABUTH (Abutilon theophrasti); experiment: Preemergence herbicidal evaluation; assay type: in vivo, Medic.; settings: rated 4-5 weeks after treatment
[10] = system: CYPSE (Cyperus serotinus); experiment: Flooded paddy, preemergence weed control; assay type: in vivo, Rottb.; settings: rated 3-4 weeks after treatment, 0-9 rating scale
Procedure, shortened: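 Seeds or propagules were planted 0.5 cm deep in silt loam and flooded to 1.5–3 cm. Compounds in 50/50 v/v aqueous/acetone were pipetted into the flood water at about 0.0080 to 0.1250 kg/ha. After 3–4 weeks in the greenhouse, effect was rated visually on a 0–9 scale versus untreated control.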

| SMILES | ZEAMX preemergence herbicidal rating ([1]; Rate 0.1250 kg/ha) | ZEAMX preemergence herbicidal rating ([1]; Rate 0.2500 kg/ha) | TRZAWR preemergence herbicidal rating ([2]; Rate 0.1250 kg/ha) | TRZAWR preemergence herbicidal rating ([2]; Rate 0.2500 kg/ha) | Postemergence herbicidal rating, CHEAL ([3]; rate 0.0320 kg/ha) | Postemergence herbicidal rating, CHEAL ([3]; rate 0.0620 kg/ha) | Postemergence herbicidal rating, AMBEL ([4]; rate 0.0320 kg/ha) | Postemergence herbicidal rating, AMBEL ([4]; rate 0.0620 kg/ha) | Postemergence herbicidal rating, CASOB ([5]; rate 0.0320 kg/ha) | Postemergence herbicidal rating, CASOB ([5]; rate 0.0620 kg/ha) | GLXMAW preemergence herbicidal rating ([6]; Rate 0.1250 kg/ha) | GLXMAW preemergence herbicidal rating ([6]; Rate 0.2500 kg/ha) | Postemergence herbicidal rating, TRZAWR ([7]; rate 0.0320 kg/ha) | Postemergence herbicidal rating, TRZAWR ([7]; rate 0.0620 kg/ha) | GALAP preemergence herbicidal rating ([8]; Rate 0.1250 kg/ha) | GALAP preemergence herbicidal rating ([8]; Rate 0.2500 kg/ha) | ABUTH preemergence herbicidal rating ([9]; Rate 0.1250 kg/ha) | ABUTH preemergence herbicidal rating ([9]; Rate 0.2500 kg/ha) | herbicidal rating, CYPSE ([10]; rate 0.0320 kg/ha) | herbicidal rating, CYPSE ([10]; rate 0.1250 kg/ha) | other results |
| --- | --- | --- | --- | --- | --- | --- | --- | --- | --- | --- | --- | --- | --- | --- | --- | --- | --- | --- | --- | --- | --- |
| C#CCOC(=O)COc1ccsc1-c1nsc2ccc(-n3c(=O)cc(C(F)(F)F)n(C)c3=O)cc12 [Compound 39, 2-propynyl [[2-[5-[3,6-dihydro-3-methyl-2,6-dioxo-4-(trifluoromethyl)-1(2H)-pyrimidinyl]-1,2-benzisothiazol-3-yl]-3-thienyl]oxy]acetate] | 0.0 | 1.0 | 0.0 | 1.0 | 0.0 | 4.0 | 3.0 | 3.0 | 0.0 | 0.0 | 1.0 | 1.0 | 1.5 | 2.0 | 0.0 | 0.0 | 1.0 | 9.0 | 0.0 | 0.0 | Preemergence herbicidal rating ZEAMX ([1]; Rate 0.0620 kg/ha): 0.0; Preemergence herbicidal rating TRZAWR ([2]; Rate 0.0620 kg/ha): 0.0; Preemergence herbicidal rating GLXMAW ([6]; Rate 0.0620 kg/ha): 0.0; Preemergence herbicidal rating GALAP ([8]; Rate 0.0620 kg/ha): 0.0; Preemergence herbicidal rating ABUTH ([9]; Rate 0.0620 kg/ha): 1.0 |
| Cc1cccnc1-c1nsc2ccc(-n3c(=O)cc(C(F)(F)F)n(C)c3=O)cc12 [Compound 19, 1-methyl-3-[3-(3-methyl-2-pyridyl)-1,2-benzisothiazol-5-yl]-6-(trifluoromethyl)uracil] | 7.0 | 7.7 | 8.0 | 8.5 | 8.0 | 9.0 | 9.0 | 9.0 | 1.5 | 5.0 | 6.7 | 7.7 | 4.0 | 4.3 | 6.0 | 9.0 | 9.0 | 9.0 | 0.0 | 6.5 | ZEAMX preemergence herbicidal rating ([1]; Rate 0.0620 kg/ha): 7.0; TRZAWR preemergence herbicidal rating ([2]; Rate 0.0620 kg/ha): 5.5; GLXMAW preemergence herbicidal rating ([6]; Rate 0.0620 kg/ha): 6.3; GALAP preemergence herbicidal rating ([8]; Rate 0.0620 kg/ha): 0.5; ABUTH preemergence herbicidal rating ([9]; Rate 0.0620 kg/ha): 7.7; herbicidal rating, CYPSE ([10]; rate 0.0080 kg/ha): 0.0 |
| Cc1cccnc1-c1nsc2cc(F)c(N3C(=O)C4=C(CCCC4)C3=O)cc12 [Compound 46, N-[6-fluoro-3-(3-methyl-2-pyridyl)-1,2-benzisothiazol-5-yl]-1-cyclohexene-1,2-dicarboximide] | – | – | – | – | 6.0 | 9.0 | 7.0 | 9.0 | 7.0 | 9.0 | – | – | 4.0 | 4.5 | – | – | – | – | – | 0.0 | Preemergence herbicidal rating ZEAMX ([1]; Rate 0.0620 kg/ha): 0.0; Preemergence herbicidal rating ZEAMX ([1]; Rate 0.1250 kg/ha): 0.0; Preemergence herbicidal rating ZEAMX ([1]; Rate 0.2500 kg/ha): 0.0; Preemergence herbicidal rating TRZAWR ([2]; Rate 0.0620 kg/ha): 1.0; Preemergence herbicidal rating TRZAWR ([2]; Rate 0.1250 kg/ha): 0.0; Preemergence herbicidal rating TRZAWR ([2]; Rate 0.2500 kg/ha): 2.0; Postemergence herbicidal rating, CHEAL ([3]; rate 0.1250 kg/ha): 9.0; Postemergence herbicidal rating, AMBEL ([4]; rate 0.1250 kg/ha): 9.0; Postemergence herbicidal rating, CASOB ([5]; rate 0.1250 kg/ha): 9.0; Preemergence herbicidal rating GLXMAW ([6]; Rate 0.0620 kg/ha): 0.0; Preemergence herbicidal rating GLXMAW ([6]; Rate 0.1250 kg/ha): 1.0; Preemergence herbicidal rating GLXMAW ([6]; Rate 0.2500 kg/ha): 2.0; Postemergence herbicidal rating, TRZAWR ([7]; rate 0.1250 kg/ha): 5.0; Preemergence herbicidal rating GALAP ([8]; Rate 0.1250 kg/ha): 0.0; Preemergence herbicidal rating GALAP ([8]; Rate 0.2500 kg/ha): 0.0; Preemergence herbicidal rating ABUTH ([9]; Rate 0.0620 kg/ha): 5.0; Preemergence herbicidal rating ABUTH ([9]; Rate 0.1250 kg/ha): 4.0; Preemergence herbicidal rating ABUTH ([9]; Rate 0.2500 kg/ha): 9.0 |
| Cc1ccn(-c2nsc3ccc(-n4c(=O)cc(C(F)(F)F)n(C)c4=O)cc23)n1 [Compound 38, 1-methyl-3-[3-(3-methylpyrazol-1-yl)-1,2-benzisothiazol-5-yl]-6-(trifluoromethl)uracil] | 5.0 | 8.0 | 4.0 | 5.0 | 0.0 | 3.0 | 0.0 | 0.0 | 0.0 | 1.0 | 4.0 | 4.0 | 3.5 | 4.0 | 3.0 | 5.0 | 4.0 | 6.0 | 9.0 | 9.0 | ZEAMX preemergence herbicidal rating ([1]; Rate 0.0620 kg/ha): 5.0; TRZAWR preemergence herbicidal rating ([2]; Rate 0.0620 kg/ha): 3.0; GLXMAW preemergence herbicidal rating ([6]; Rate 0.0620 kg/ha): 0.0; GALAP preemergence herbicidal rating ([8]; Rate 0.0620 kg/ha): 5.0; ABUTH preemergence herbicidal rating ([9]; Rate 0.0620 kg/ha): 4.0 |
| Cn1c(C(F)(F)F)cc(=O)n(-c2ccc3snc(-c4cccs4)c3c2)c1=O [Compound 3, 1-methyl-3-[3-(2-thienyl)-1,2-benzisothiazol-5-yl]-6-(trifluoromethyl)uracil] | 6.5 | 7.0 | 5.0 | 6.0 | 9.0 | 9.0 | 9.0 | 9.0 | 4.0 | 5.0 | 9.0 | 9.0 | 2.5 | 4.5 | 9.0 | 9.0 | 9.0 | 9.0 | 6.5 | 6.5 | ZEAMX preemergence herbicidal rating ([1]; Rate 0.0620 kg/ha): 6.5; TRZAWR preemergence herbicidal rating ([2]; Rate 0.0620 kg/ha): 4.0; Postemergence herbicidal rating, CHEAL ([3]; rate 0.1250 kg/ha): 9.0; Postemergence herbicidal rating, AMBEL ([4]; rate 0.1250 kg/ha): 9.0; Postemergence herbicidal rating, CASOB ([5]; rate 0.1250 kg/ha): 9.0; GLXMAW preemergence herbicidal rating ([6]; Rate 0.0620 kg/ha): 5.5; Postemergence herbicidal rating, TRZAWR ([7]; rate 0.1250 kg/ha): 5.0; GALAP preemergence herbicidal rating ([8]; Rate 0.0620 kg/ha): 9.0; ABUTH preemergence herbicidal rating ([9]; Rate 0.0620 kg/ha): 8.5; herbicidal rating, CYPSE ([10]; rate 0.0080 kg/ha): 0.0 |
| Cc1nn(-c2nsc3ccc(-n4c(=O)cc(C(F)(F)F)n(C)c4=O)cc23)c(C)c1C [Compound 49, 1-methyl-6-(trifluoromethyl)-3-[3-(3,4,5-trimethylpyrazol-1-yl)-1,2-benzisothiazol-5-yl]uracil] | – | – | – | – | – | – | – | – | – | – | – | – | – | – | – | – | – | – | 0.0 | 0.0 | Preemergence herbicidal rating ZEAMX ([1]; Rate 0.0620 kg/ha): 0.0; Preemergence herbicidal rating ZEAMX ([1]; Rate 0.1250 kg/ha): 0.0; Preemergence herbicidal rating ZEAMX ([1]; Rate 0.2500 kg/ha): 0.0; Preemergence herbicidal rating TRZAWR ([2]; Rate 0.0620 kg/ha): 0.0; Preemergence herbicidal rating TRZAWR ([2]; Rate 0.1250 kg/ha): 0.0; Preemergence herbicidal rating TRZAWR ([2]; Rate 0.2500 kg/ha): 0.0; CHEAL herbicidal rating ([3]; rate 0.0320 kg/ha): 0.0; CHEAL herbicidal rating ([3]; rate 0.0620 kg/ha): 0.0; AMBEL herbicidal rating ([4]; rate 0.0320 kg/ha): 0.0; AMBEL herbicidal rating ([4]; rate 0.0620 kg/ha): 0.0; CASOB herbicidal rating ([5]; rate 0.0320 kg/ha): 0.0; CASOB herbicidal rating ([5]; rate 0.0620 kg/ha): 0.0; Preemergence herbicidal rating GLXMAW ([6]; Rate 0.0620 kg/ha): 0.0; Preemergence herbicidal rating GLXMAW ([6]; Rate 0.1250 kg/ha): 0.0; Preemergence herbicidal rating GLXMAW ([6]; Rate 0.2500 kg/ha): 0.0; TRZAWR herbicidal rating ([7]; rate 0.0320 kg/ha): 0.5; TRZAWR herbicidal rating ([7]; rate 0.0620 kg/ha): 1.5; Preemergence herbicidal rating ABUTH ([9]; Rate 0.0620 kg/ha): 0.0; Preemergence herbicidal rating ABUTH ([9]; Rate 0.1250 kg/ha): 0.0; Preemergence herbicidal rating ABUTH ([9]; Rate 0.2500 kg/ha): 0.0 |
